Laboratory results as given in patent publication US20080064701A1, “Anti-diabetic combinations” (priority 2007, published 2008).
Where two headings read alike, the source gives them in different places.

Legend:
[1] = tested on: patients with type 2 diabetes; conditions: human, in vivo; for patients who had adverse events: 24 weeks
Source text: Laboratory results were then reviewed for these particular patients to determine which patients actually had clinically important changes in a given laboratory parameter.

patients with T2DM = conditions: cited from earlier work
[2] = monotherapy, 100 or 200 mg daily

Compound | patients who had adverse events [1] [%] | clinically important decreases in any hematological parameter attributable to drug [1] | responsibility for clinically meaningful elevations in ALT and AST [1] | weight gain (patients with T2DM; 24-week monotherapy studies) | patients achieving a HbA1C of <7% (patients with T2DM; 24-week, background pioglitazone (30 or 45 mg daily)) [%] | mean HbA1C reduction (patients with T2DM; 24-week, sitagliptin 100 mg daily add-on to pioglitazone (30 or 45 mg daily), mean baseline HbA1C 8.1%) [%] | HbA1C (patients with T2DM; [2]) | hypoglycemia (patients with T2DM; [2]) | fasting and postprandial glycaemia (patients with T2DM; monotherapy) | mean placebo-subtracted reduction in HbA1C (patients with T2DM; sitagliptin 100 mg daily added to at least 1,500 mg per day of metformin) [%] | patients achieving a HbA1C of <7% (patients with T2DM; sitagliptin 100 mg daily added to at least 1,500 mg per day of metformin, mean baseline HbA1C 8%) [%]
CN(C)C(=N)N=C(N)N [metformin] | 10 |  |  |  |  |  |  |  |  |  | 
N[C@@H](CC(=O)N1CCn2c(nnc2C(F)(F)F)C1)Cc1cc(F)c(F)cc1F [sitagliptin, Sitagliptin] | 8 | no patient experienced clinically important decreases | not responsible for the variations | no significant weight gain | 45.4 | 0.7 | significantly reduced | no significant increase in hypoglycemia | reduced both fasting and postprandial glycaemia | 0.65 | 47
